{"source": "patent US20250332265A1", "about": "“PSMA TARGETED CONJUGATE COMPOUNDS AND USES THEREOF” (priority 2021, published 2025)", "key": {"[1]": {"assay": "Maximum tolerated dose (MTD)", "format": "in vivo, mice", "conditions": "single dose i.v., tumor-free athymic nude mice", "excerpt": "Mice were monitored daily for 14 days."}, "[2]": {"test_system": "PSMA-positive PC3pip cells", "assay": "In vitro cytotoxicity assay (CCK-8), PC3pip", "format": "cell-based, human", "conditions": "72 hours incubation", "procedure": "Cells (1,000/well) were seeded in 96-well culture plates the day before treatment. Cells were incubated with various concentrations of drugs for 72 hours and cell viability evaluated by CCK-8 (Dojindo). The concentration required to reach 50% of cell proliferation was determined (IC50) by GraphPad Prism 3.0."}, "[3]": {"test_system": "PC3pip cells", "assay": "In vitro cytotoxicity by MTT assay, PC3pip", "format": "cell-based, human", "conditions": "5 nM, 24 h", "procedure": "(§1) In vitro cytotoxicity was measured by MTT assay. Cells (10000 cells/well) were seeded in 96-well plates and incubated for 24 h before adding 5 nM free MMAE, PSMA-MMAE, or PSMA-AuNCs-MMAE. An equivalent amount of PSMA-AuNCs without MMAE was added as a control, and another group of cells pretreated with 50 μM E64 inhibitor for 6 h was also incubated with PSMA-AuNCs-MMAE. After incubation for 1, 4, and 24 h, cells were rinsed with PBS and incubated with 1 mg/mL MTT solution in culture media for 3.5 h. After that media were removed, and 100 μL of DMSO was added. The absorbance was measured 15 min later by a plate reader (Tecan Infinite M200) with absorbance at 570 nm and reference at 620 nm."}, "[4]": {"test_system": "PC3flu cells", "assay": "In vitro cytotoxicity by MTT assay, PC3flu", "format": "cell-based, human", "conditions": "5 nM, 24 h", "procedure": "as §1"}, "[5]": {"test_system": "α-tubulin in PC3pip and PC3flu cells", "assay": "Immunofluorescence analysis of alpha-tubulin", "format": "cell-based, human", "conditions": "5 nM, 24 hours", "procedure": "Cells on coverslips at about 70% confluency were incubated with 5 nM of MMAE, PSMA-1-VcMMAE-Cy5.5 or PSMA-1-McMMAE-Cy5.5 for 24 hours. Cells were washed and fixed with 4% paraformaldehyde for 10 minutes, permeabilized with 0.1% Triton™ X-100 for 10 minutes, and blocked with 1% BSA for 1 hour at room temperature. Alpha-tubulin (B5-1-2) Alexa Fluor 488 Mouse Monoclonal Antibody (Invitrogen) was then added at 2 μg/mL in 0.1% BSA and incubated for 3 hours at room temperature. Cells were counterstained with DAPI, mounted with Fluor-Mount aqueous mounting solution, and observed under Leica DM4000B fluorescence microscopy at 40×."}, "[6]": {"test_system": "heterotopic PC3pip tumors", "assay": "Heterotopic survival study", "format": "in vivo, mice", "excerpt": "Male athymic nude mice were implanted subcutaneously with 1×10^6 of PC3pip cells under the right dorsum of the mice. When tumor size reached approximately 100 mm^3 (tumor volume=Length×width^2/2), mice received drugs through tail vein injection. […] Animals were weighed and tumor size measured every other day for 90 days. Cures were defined as no tumor present at end of the 90-day study. When tumors became too large or animals were moribund they were euthanized. Five mice were used in each group."}, "[7]": {"test_system": "PC3pip tumor", "assay": "In vivo chemoradiotherapy", "design": "species or system mice", "procedure": "Male athymic nude mice were subcutaneously implanted with the PC3pip tumor, and when the tumor size reached about 100 mm^3 (tumor volume=length×width^2/2), the mice were divided into ten groups randomly. Each group was intravenously injected with PBS, PSMA-AuNCs, PSMA-AuNCs-MMAE, PSMA-MMAE, or a mixture of PSMA-AuNCs and PSMA-MMAE at MMAE dose of 400 nmol/kg and an equivalent dose of Au. At 4 h postinjection, five of the groups were irradiated with X-rays (6 Gy, Cs-137 with energy of 0.6616 MeV) focusing on the tumor region, and the other five groups received the same injections but no radiation and were used as controls. Each group contained five mice. All the treatments were given only once, and then the mice were monitored for tumor size and body weight every other day for one month. The coefficient of drug interaction (CDI) is calculated as follows: CDI=C/(A×B),^44 where C is the tumor volume ratio of PSMA-AuNCs-MMAE+RT group to control group, A is the tumor volume ratio of PSMA-AuNCs+RT group to control group, and B is the tumor volume ratio of PSMA-MMAE+RT group to control group; PBS+RT group is the control. […] When the tumors became too large or an animal was moribund, they were euthanized. At the end of monitoring, all mice were euthanized and tumors were isolated and weighed."}, "[8]": {"test_system": "PC3pip cells", "assay": "In vitro radiotherapy (colony survival)", "format": "cell-based, human", "conditions": "1 nM MMAE and/or 60 μg Au/mL, 6 h, X-ray 0-6 Gy", "procedure": "Both PC3pip and PC3flu cells (1×10^5 cells/well) were cultured in 6-well plates for 24 h, and then PSMA-AuNC-MMAE and PSMA-MMAE were added at an equivalent MMAE concentration of 1 nM. Additionally, PSMA-AuNCs without MMAE was added at 60 μg Au/mL. Another group with the addition of a mixture of PSMA-AuNCs and PSMA-AuNC-MMAE at the equivalent dose of Au and MMAE was also evaluated. Mixing was performed so as to keep Au concentrations equivalent. This could not be achieved by adding more PSMA-AuNC-MMAE as this would result in toxic levels of MMAE. Cells without any treatment were used as blank control. Following incubation for 6 h, the media were removed, and cells were rinsed by PBS before exposing to X-ray radiation at doses of 0, 2, 4, and 6 Gy. Next, cells were trypsinized, counted, and reseeded in 6-well plate for colonies to grow. After 2 weeks, all the wells were rinsed with PBS, fixed with 4% paraformaldehyde, and stained by 0.4% crystal violet. The number of colonies from each well was counted to calculate the survive fraction."}, "[9]": {"assay": "In vitro cytotoxicity by MTT assay, PC3flu", "format": "cell-based, human", "conditions": "5 nM, 24 h, read-out: cell killing / drop of viability, PC3flu cells", "procedure": "as §1"}}, "note": "Numbered stars: 1 amine (or outer) side, 2 acyl side, 3 side chain; on linkers, the order of the positions; unused ones are H or OH. Bridge positions count the residues as written; N and C are the ends. Square brackets hold non-standard residues; d marks the D form. Peptide text beside a SMILES is read from it. I, II: the chains in the order shown. * marks the point of attachment. Hexanoyl(6-succinimido-3yl) = O=C1CC([*:1])C(=O)N1CCCCCC(=O)[*:2]; Dolaproine = CO[C@@H]([C@@H]1CCCN1)[C@@H](C)C(=O)O; Dil = CC[C@H](C)[C@H](NC)[C@@H](CC(=O)O)OC; γGlu = O=C(O)[C@H](CCC(=O)[*:2])N[*:1]; PABC = O=C(OCc1ccc(N[*:1])cc1)[*:2]; X1 = C[C@@H](N*)[C@@H](O)c1ccccc1; Trx = NC[C@H]1CC[C@H](C(=O)O)CC1; Cit = NC(=O)NCCC[C@H](N)C(=O)O; NMeV = CN[C@H](C(=O)O)C(C)C; CO = O=C([*:1])[*:2]; Ahx = NCCCCCC(=O)O", "data": [{"smiles": "CC[C@H](C)[C@@H]([C@@H](CC(=O)N1CCC[C@H]1[C@H](OC)[C@@H](C)C(=O)N[C@H](C)[C@@H](O)c1ccccc1)OC)N(C)C(=O)[C@@H](NC(=O)[C@@H](NC)C(C)C)C(C)C", "note": "[MMAE, monomethyl auristatin E, reference compound] (H-[NMeV]V[Dil][Dolaproine]-X1)", "values": [{"measurement": "maximum tolerated dose (MTD)", "setting": "[1]", "value": 700, "unit": "nmol/kg"}, {"measurement": "selectivity, differential cytotoxicity between PC3pip and PC3flu cells", "setting": "[2]", "value": "no selectivity"}, {"measurement": "cell killing, PC3pip cells", "setting": "[3]", "value": "over 70%"}, {"measurement": "cell killing / drop of viability, PC3flu cells", "setting": "[4]", "value": "over 70%"}, {"measurement": "disruption of α-tubulin network", "setting": "[5]", "value": "non-selective tubulin disruption"}, {"measurement": "time by which all mice died", "setting": "[6]; 160 nmol/kg", "value": "≤ 36", "unit": "days"}, {"measurement": "antitumor activity (tumor growth), words", "setting": "[6]; 160 nmol/kg i.v. every four days, 5 doses", "value": "relatively ineffective at inhibiting tumor growth"}]}, {"smiles": "CC[C@H](C)[C@@H]([C@@H](CC(=O)N1CCC[C@H]1[C@H](OC)[C@@H](C)C(=O)N[C@H](C)[C@@H](O)c1ccccc1)OC)N(C)C(=O)[C@@H](NC(=O)[C@H](C(C)C)N(C)C(=O)OCc1ccc(NC(=O)[C@H](CCCNC(N)=O)NC(=O)[C@@H](NC(=O)CCCCCN2C(=O)CC(SC[C@H](NC(=O)[C@H](Cc3ccc(O)cc3)NC(=O)[C@H](CCCCN)NC(=O)[C@H](CCC(=O)O)NC(=O)[C@H](CCC(=O)O)NC(=O)[C@H](CCC(=O)O)NC(=O)CCCCCNC(=O)[C@H]3CC[C@H](CNC(=O)CC[C@H](NC(=O)N[C@@H](CCC(=O)O)C(=O)O)C(=O)O)CC3)C(N)=O)C2=O)C(C)C)cc1)C(C)C", "note": "(stereo partly drawn) [PSMA-MMAE] (I: {Glu-CO-γGlu-Trx-Ahx}-EEEKYC-NH2 / II: V[Cit][PABC][NMeV]V[Dil][Dolaproine]-X1; linker I:6-II:N via Hexanoyl(6-succinimido-3yl); C-terminus assumed)", "values": [{"measurement": "tumor volume increase", "setting": "[7]; 6 Gy radiation, day 30, MMAE 400 nmol/kg", "value": 55, "unit": "%"}, {"measurement": "tumor volume increase", "setting": "[7]; no radiation, end of observation, MMAE 400 nmol/kg", "value": 163, "unit": "%"}, {"measurement": "cell killing, PC3pip cells", "setting": "[3]", "value": 58, "unit": "%"}, {"measurement": "radiosensitization (colony survival rate) of PC3pip cells", "setting": "[8]", "value": "notably lower survival rate"}, {"measurement": "cytotoxicity", "setting": "[9]", "value": 18, "unit": "%"}]}]}
